{"source": "patent US7179446B2", "about": "“Simultaneous imaging of cardiac perfusion and a vitronectin receptor targeted imaging agent” (Bristol-Myers Squibb Pharma Company, priority 2000, dated 2007)", "tested_on": "areas of endothelial damage, vulnerable plaque or angiogenesis in the heart", "test": "Simultaneous imaging of In-111 labeled vitronectin antagonist compound and Tc99m cardiac perfusion agent (Example 67)", "format": "in vivo", "conditions": "human, 10–40 mCi, approximately 0.5 to 6 hours following injection", "method": "The compound of Examples 54, 55 or 56 is administered to a human at a level of ˜1–10 mCi of ^111In before, together with, or after the adminstration of a ^99mTc cardiac perfusion imaging agent (e.g. 10–40 mCi of ^99mTc-Sestamibi). […] The simultaneous imaging of the In-111 labeled vitronectin antagonist compound and the Tc99m cardiac perfusion agent is carried out by a method such as that reported by White (White, S A, Mueller, D H, Smith H E, et al. J Nucl Med Tech 1984, 12: 124–125) or Hillel (Hillel P G, Tindale W B, Taylor C J, et al. Nucl Med Conmun 1998, 19, 761–769).", "data": [{"smiles": "[C-]#[N+]CC(C)(C)OC.[C-]#[N+]CC(C)(C)OC.[C-]#[N+]CC(C)(C)OC.[C-]#[N+]CC(C)(C)OC.[C-]#[N+]CC(C)(C)OC.[C-]#[N+]CC(C)(C)OC.[Tc]", "note": "[^99mTc-Sestamibi, hexakis methoxyisobutyl isonitrile Technetium(I)]", "values": [{"measurement": "distribution of the ^99mTc perfusion agent", "result": "distributed in the myocardium in relation to regional myocardial blood flow"}]}]}
